One data set concerns d-U937 cells. As to the kind of experiment: MTT assay, cell viability. The format is cell-based, human. Conditions: 10 μg/mL. Here is the method:
PMA-differentiated U937 cells were pre-incubated with test compound (10 μg/mL) or vehicle for 4 hr in 5% FCS or 10% FCS for 24 hr. The supernatant was replaced with new media (200 μL) and MTT stock solution (10 μL, 5 mg/mL) was added to each well. After 1 hr incubation, the media were removed, 200 μL of DMSO was added to each well and the plates were shaken lightly for 1 hr prior to reading the absorbance at 550 nm. The percentage loss of cell viability was calculated for each well relative to vehicle (0.5% DMSO)-treatment.
(Tetrazolium dyes change colour on reduction, which living cells bring about.)

Another data set relates to IFNγ-primed U937 cells. In words: Superoxide anion production assay (zymosan-induced ROS). Format: cell-based. The following applies: Homo sapiens, U-937; read-out: REC50, Zymosan-induced ROS production in IFNγ-primed U937 cells. Here is the method:
As a means of assessing PI3Kδ dependent cell function, superoxide anion production in IFNγ-primed U937 cells was evaluated by a chemiluminescence assay. The U937 cells (purchased from ATCC, Manassas, Va.) were maintained in RPMI 1640 (Invitrogen Ltd., Paisley, UK) with 10% FCS at 37° C. The cells were suspended at a density of 10^7cells/mL in 40 mL 10% FCS RPMI 1640, and treated with 20 μL of 100 μg/mL IFNγ solution (final concentration: 50 ng/mL), and incubated at 37° C., 5% CO2 for 4 days.
IFNγ-primed U937 cells were seeded at 0.2×10^6 cells/well in a 96-well plate, and pre-incubated with test compounds for 2 hr in starvation media (0.5% FCS RPMI1640-phenol red free). Zymosan A (10 mg) from Saccharomyses cerevisiae (ex Sigma-Aldlich) was resuspended in 1 mL of 150 mM NaCl and boiled at 100° C. for 15 min. After boiling, Zymosan particles were washed with 1 mL of PBS twice, and incubated with 0.5 mL of BioParticles™ opsonized reagents (Life technologies) for 60 min at 37° C. […] Chemiluminescence indicating released superoxide anion was measured every 15 min up to 60 min by luminometric measurement (Varioskan® Flash, Thermo-Fisher Scientific).
The data at 60 min after incubation was used for analysis. […] The relative EC50 values were calculated from the concentration-response curves generated by the serial dilutions of the test compounds using XL-Fit (idbs, Guildford, UK).

A further data set concerns PBMCs. As to the kind of experiment: Cytostim-induced cytokine production in PBMCs. Format: cell-based. The following applies: Homo sapiens, PBMC. Here is the method:
As a means of assessing PI3Kδ-dependent cell function, cytostim-induced IL-4, IL-5, IL-13 and IFNγ production in PBMCs were evaluated by Luminex multiplex assay. All healthy volunteers were recruited by Quintiles Limited (London, UK), and blood samples were delivered to Respivert Ltd. This study was approved by the local Ethics Committee, and all subjects gave written informed consent.
PBMC suspensions (200 μL; 2×10^6 cells/mL) were added to a 96-well plate. Cells were treated with either test compounds in neat DMSO or DMSO as vehicle (2 μL) and incubated at RT for 1 hr. Cytostim (Miltentyi Biotec, Surrey, UK) was introduced at a ratio of 1:50 and the cells were incubated for 20 hr (37° C.; 5% CO2). Plates were spun at 500×g for 5 min and the supernatant collected. A high sensitivity cytokine magnetic bead kit (#HSCYTMAG-60SK, Millipore, Watford, UK) was used to measure the four analytes (IL-4, IL-5, IL-13 and IFNγ) by Luminex as follows: The magnetic antibody beads were multiplexed and incubated in a 96-well plate with standard, media only or sample (50 μL) overnight with shaking at 4° C. After washing twice with Millipore wash buffer provided in the kit using a magnetic plate washer, the beads were incubated for 1 hr with detection antibody (50 μL) with shaking at RT. A streptavidin-phycoerythrin solution provided in the kit was added for 30 min with shaking at RT. After washing, the beads were re-suspended in sheath fluid (150 μL) and analysed immediately. The Luminex system was set up to count 50 beads and the amount of each analyte in the supernatant was calculated against a standard curve. The IC50 values were determined from concentration-inhibition curves using XL-Fit (IDBS, Guildford, UK)

A further data set relates to THP1 cells. As to the kind of experiment: Chemotaxis to MCP1. Format: cell-based. Conditions: Homo sapiens, THP-1; read-out: REC50, THP1 cell chemotaxis to MCP1. Here is the method: As a means of assessing PI3K γ dependent cell function, THP1 cell chemotaxis to MCP-1 was evaluated using a 48 well-chemotaxis chamber. THP1 cells from a human leukemic monocyte lymphoma cell line, (purchased from ATCC Manassas, Va.) were maintained in RPMI 1640 (Invitrogen Ltd., Paisley, UK) with 10% FCS at 37° C. Cells were re-suspended in 0.5% BSA/RPM11640 (2×10^6 cells/mL) and incubated for 10 min at 37° C., 5% CO2. Cell suspension aliquots (500 μL) were then treated either with compounds in neat DMSO or with DMSO as vehicle (2.5 μL) for 1hr (37° C., 5% CO2).
MCP1 (50 nM) was prepared in 0.5% BSA/RPM11640. MCP1 solution (50 μL) was added to each well in the bottom plate of a 48-well chemotaxis chamber (AP48, NeuroProbe Inc., Gaithersburg, Md.). A polycarbonate membrane (8 μm) was mounted on the bottom chamber, and then the top plate was mounted on the bottom chamber and filter membrane. […]
A solution of MTT (50 μL) in 10% FCS phenol red-free RPM11640 was added to each well, and the plate was incubated for 2 hr (37° C., 5% CO2). Neat DMSO (100 μL) was added to each well to extract formazan formed from MTT and the plates were shaken lightly for 1 hr prior to measuring the absorbance at 595 nm (Varioskan® Flash, Thermo-Fisher Scientific). […] Relative EC50 values were determined from concentration-inhibition curves using XL-Fit (idbs, Guildford, UK).

For data set [1], the system named is cigarette smoke-induced cell accumulation and biomarkers in murine BALF. As to the kind of experiment: Cigarette smoke model. The format is in vivo, A/J mice. Here is the method: A/J mice (males, 5 weeks old) were exposed to cigarette smoke (4% cigarette smoke, diluted with compressed air) for 30 min/day for 11 days using a Tobacco Smoke Inhalation Experiment System for small animals (Model SIS-CS; Sibata Scientific Technology, Tokyo, Japan). Test substances were administered once daily for 3 days after the final cigarette smoke exposure (intra-nasal dose comprising 35 μL of solution in 50% DMSO/isotonic saline).
At 12 hr after administration of the last dose, animals were anesthetized, the trachea was cannulated and bronchial alveolar lavage (BAL) was carried out by the instillation into and then withdawal from the lungs, of PBS (100 mL/kg). Total cell numbers in the BALF samples were measured using a haemocytometer under a phase-contrast microscope. The proportions of alveolar macrophages and neutrophils were determined by FACS analysis using anti-mouse MOMA2-FITC (macrophage) or anti-mouse 7/4 (neutrophil).
Cells were suspended in PBS and were incubated with anti-MOMA2-FITC (2 μg/mL, Catalogue no SM065F, Acris Antibodies GmbH, Herford, Germany) or anti-7/4-FITC (2 μg/mL, Catalogue no CL050F, Acris Antibodies GmbH, Herford, Germany) for 30 min at 30° C., and also counterstained with propidium iodide (2 μg/mL) to allow exclusion of necrotic cells. The cells were washed with PBS, and transferred to FACS tubes. Samples was set in a flow cytometer (ALTRA II; Beckman Coulter Japan, Tokyo, Japan), and a single-parameter FL2 [PMT2] (FITC) histogram with log x-axis was plotted to illustrate relative intensity of FITC.
Data files are stored for subsequent analysis using Kaluza analysis software (ver. 1.2) to calculate the proportion of each cell type. The levels of CXCL1(KC), MCP1, TNFα, IL-17 or osteopontin in BALF were determined using Quentikine® mouse KC, MCP1, TNFα, IL-17 or osteopontin ELISA kit (R&D systems, Inc., Minneapolis, Minn., USA). The presence of malondialdehyde was measured using OxiSelect® TBARS Assay Kit (MDA Quantitation; Cell Biolabs Inc, San Diego, Calif., USA).

Read-outs that look alike come from different tables or passages of the source.

For orientation: IC50 means the midpoint of a concentration-inhibition curve.

As for `Nc1ncnc2c1c(-c1cc(O)cc(F)c1)nn2Cc1nc2cccc(C#CCOCCOCCO)c2c(=O)n1Cc1ccccc1C(F)(F)F` [Compound (Ia), 2-((4-Amino-3-(3-fluoro-5-hydroxyphenyl)-1H-pyrazolo[3,4-d]pyrimidin-1-yl)methyl)-5-(3-(2-(2-hydroxyethoxy)ethoxy)prop-1-yn-1-yl)-3-(2-(trifluoromethyl)benzyl)quinazolin-4(3H)-one], the “Cell Viability MTT Assay in d-U937 cells at 4 hr” value in the data set on d-U937 cells (4 hr) was “−ve (−ve indicates a value of <30% inhibition at 10 μg/mL)”. Besides, the “Cell Viability MTT Assay in d-U937 cells at 24 hr” value with d-U937 cells (24 hr) is “−ve (−ve indicates a value of <30% inhibition at 10 μg/mL)”. Further, the EC50 is 143 nM with IFNγ-primed U937 cells and more than 14200 nM in the data set on THP1 cells. Further, the concentration for half-maximal inhibition (IC50) amounted to 60.8 nM in the data set with PBMCs (read-out: IC50, Cytostim-induced IFNγ in PBMCs); 674 nM with PBMCs (read-out: IC50, Cytostim-induced IL-4 in PBMCs); 14.5 nM in the data set on PBMCs (read-out: IC50, Cytostim-induced IL-5 in PBMCs); 6.1 nM in the data set on PBMCs (read-out: IC50, Cytostim-induced IL-13 in PBMCs).

In the case of `C[C@@H]1C[C@H]2[C@@H]3CCC4=CC(=O)C=C[C@]4(C)[C@@]3(F)[C@@H](O)C[C@]2(C)[C@@]1(O)C(=O)CO` [dexamethasone, reference compound], the “activity in the cigarette smoke model” value in data set [1] (0.3-10 mg/kg, p.o.) was “inactive”.

As for `CCC(=O)O[C@]1(C(=O)SCF)[C@H](C)C[C@H]2[C@@H]3C[C@H](F)C4=CC(=O)C=C[C@]4(C)[C@@]3(F)[C@@H](O)C[C@@]21C` [fluticasone propionate, reference compound], the “effect as monotherapy in the cigarette smoke model” value in data set [1] (dose used for co-administration with compound (I)) is given as “lacks any significant effect as monotherapy”.

These data come from patent US20170334919A1, “2-((4-AMINO-3-(3-FLUORO-5-HYDROXYPHENYL)-1H-PYRAZOLO[3,4-D]PYRIMIDIN-1 -YL)METHYL)-3-(2-(TRIFLUORO-MET HYL)BENZYL)QUINAZOLIN-4(3H)-ONE DERIVATIVES AND THEIR USE AS PHOSPHOINOSITIDE 3-KINASE INHIBITORS” (RESPIVERT LTD., priority 2013, published 2017).
